Results from patent US20120178766A1, “FUROPYRIMIDINEDIONE DERIVATIVES AS TRPAI MODULATORS” (priority 2009, published 2012).

Experiments:
human TRPA1 = target: T1, human TRPA1 (Homo sapiens, UniProt O75762); test: 45Calcium uptake assay: inhibition of AITC induced cellular uptake of radioactive calcium, human TRPA1 expressing CHO cells; type: cell-based; conditions: AITC 30 μM; for inhibition at 1 µM: 1.0 μM compound, read-out: human TRPA1 Percentage inhibition at 1.0 μM; for inhibition at 10 µM: 10.0 μM compound, read-out: human TRPA1 Percentage inhibition at 10.0 μM
T1 construct: expressed in transfected cells; host or cells: CHO cells (G-418 selection)
From the text: The illustrative examples of the present invention are screened for TRPA1 activity according to a modified procedure described in (a) Tóth, A. et al. Life Sciences, 2003, 73, 487-498. (b) McNamara C, R. et al, Proc. Natl. Acad. Sci. U.S.A., 2007, 104, 13525-13530. The screening of the compounds can be carried out by other methods and procedures known to persons skilled in the art.
(§1) Screening for TRPA1 Antagonist Using the ^45Calcium Uptake Assay:
(§2) The inhibition of TRPA1 receptor activation was measured as inhibition of allyl isothiocyanate (AITC) induced cellular uptake of radioactive calcium.
Test compounds were dissolved in 100% DMSO to prepare 10 mM stock and then diluted using plain medium with 0.1% BSA and 1.8 mM CaCl2 to get the desired concentration. The final concentration of DMSO in the reaction was 0.5% (v/v). Human TRPA1 expressing CHO cells were grown in F-12 DMEM medium with 10% FBS, 1% penicillin-streptomycin solution, and 400 μg/ml of G-418. Rat TRPA1 expressing CHO cells were grown in F-12 DMEM medium with 10% FBS, 1% penicillin-streptomycin solution, and 400 μg/ml of Zeocin. Cells were seeded 24 h prior to the assay in 96 well plates so as to get ˜50,000 cells per well on the day of experiment. Cells were treated with the test compounds for 10 minutes followed by the addition of AITC at a final concentration of 30 μM (for human TRPA1) and/or 10 μM (for rat TRPA1) and 5 μCi/ml ^45Ca^+2 for 3 minutes. Cells were washed and lysed using a buffer containing 1% Triton X-100, 0.1% deoxycholate and 0.1% SDS. Radioactivity in the lysate was measured in a Packard TopCount after addition of liquid scintillant. (Toth et al, Life Sciences (2003) 73, 487-498; McNamara C R et al, Proceedings of the National Academy of Sciences, (2007) 104, 13525-13530).
(§3) Concentration response curves were plotted as a % of maximal response obtained in the absence of test antagonist. IC50 values can be calculated from concentration response curve by nonlinear regression analysis using GraphPad PRISM software.

rat TRPA1 = target: T2, rat TRPA1 (Rattus norvegicus, UniProt Q6RI86); test: 45Calcium uptake assay: inhibition of AITC induced cellular uptake of radioactive calcium, rat TRPA1 expressing CHO cells; type: cell-based; conditions: AITC 10 μM; for inhibition at 10 µM: 10.0 μM compound, read-out: rat TRPA1 Percentage inhibition at 10.0 μM; for inhibition at 1 µM: read-out: rat TRPA1 Percentage inhibition; for IC50: class symbols
T2 construct: expressed in transfected cells; host or cells: CHO cells (Zeocin selection)
Method: as §1, §2
Test compounds were dissolved in 100% DMSO to prepare 10 mM stock and then diluted using plain medium with 0.1% BSA and 1.8 mM CaCl2 to get the desired concentration. The final concentration of DMSO in the reaction was 0.5% (v/v). […] Rat TRPA1 expressing CHO cells were grown in F-12 DMEM medium with 10% FBS, 1% penicillin-streptomycin solution, and 400 μg/ml of Zeocin. […] Cells were treated with the test compounds for 10 minutes followed by the addition of AITC at a final concentration of 30 μM (for human TRPA1) and/or 10 μM (for rat TRPA1) and 5 μCi/ml ^45Ca^+2 for 3 minutes. Cells were washed and lysed using a buffer containing 1% Triton X-100, 0.1% deoxycholate and 0.1% SDS. Radioactivity in the lysate was measured in a Packard TopCount after addition of liquid scintillant.
as §3

T2 sequence (Q6RI86 whole entry): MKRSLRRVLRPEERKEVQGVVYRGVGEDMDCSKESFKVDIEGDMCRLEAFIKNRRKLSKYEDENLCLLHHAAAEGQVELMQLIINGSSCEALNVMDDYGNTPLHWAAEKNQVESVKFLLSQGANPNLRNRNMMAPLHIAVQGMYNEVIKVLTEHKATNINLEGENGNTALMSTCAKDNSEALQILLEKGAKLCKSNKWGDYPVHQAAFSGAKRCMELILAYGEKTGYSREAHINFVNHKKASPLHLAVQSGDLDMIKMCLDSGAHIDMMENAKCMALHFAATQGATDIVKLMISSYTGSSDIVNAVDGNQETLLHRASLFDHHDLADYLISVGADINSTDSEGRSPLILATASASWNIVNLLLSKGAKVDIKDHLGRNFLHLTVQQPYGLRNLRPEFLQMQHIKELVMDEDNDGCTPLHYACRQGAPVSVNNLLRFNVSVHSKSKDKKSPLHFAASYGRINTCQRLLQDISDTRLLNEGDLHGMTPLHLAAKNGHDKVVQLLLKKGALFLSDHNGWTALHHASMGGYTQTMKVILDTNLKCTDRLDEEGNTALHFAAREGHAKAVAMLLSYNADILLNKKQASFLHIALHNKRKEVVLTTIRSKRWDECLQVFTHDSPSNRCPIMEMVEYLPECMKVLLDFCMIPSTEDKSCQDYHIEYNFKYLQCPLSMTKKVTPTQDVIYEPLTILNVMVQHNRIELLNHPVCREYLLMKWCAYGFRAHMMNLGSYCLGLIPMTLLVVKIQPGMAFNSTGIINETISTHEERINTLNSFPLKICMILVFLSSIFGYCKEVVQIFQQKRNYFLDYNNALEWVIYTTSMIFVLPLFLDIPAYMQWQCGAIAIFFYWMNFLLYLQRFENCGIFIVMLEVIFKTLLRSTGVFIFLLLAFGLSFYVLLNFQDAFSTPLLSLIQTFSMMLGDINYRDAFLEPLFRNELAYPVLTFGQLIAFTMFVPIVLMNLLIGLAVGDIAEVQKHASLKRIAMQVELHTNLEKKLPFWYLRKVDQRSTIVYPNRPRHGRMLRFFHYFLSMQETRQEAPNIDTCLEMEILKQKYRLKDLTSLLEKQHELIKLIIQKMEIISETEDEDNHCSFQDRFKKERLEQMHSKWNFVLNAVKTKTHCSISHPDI
T1 sequence (O75762 whole entry): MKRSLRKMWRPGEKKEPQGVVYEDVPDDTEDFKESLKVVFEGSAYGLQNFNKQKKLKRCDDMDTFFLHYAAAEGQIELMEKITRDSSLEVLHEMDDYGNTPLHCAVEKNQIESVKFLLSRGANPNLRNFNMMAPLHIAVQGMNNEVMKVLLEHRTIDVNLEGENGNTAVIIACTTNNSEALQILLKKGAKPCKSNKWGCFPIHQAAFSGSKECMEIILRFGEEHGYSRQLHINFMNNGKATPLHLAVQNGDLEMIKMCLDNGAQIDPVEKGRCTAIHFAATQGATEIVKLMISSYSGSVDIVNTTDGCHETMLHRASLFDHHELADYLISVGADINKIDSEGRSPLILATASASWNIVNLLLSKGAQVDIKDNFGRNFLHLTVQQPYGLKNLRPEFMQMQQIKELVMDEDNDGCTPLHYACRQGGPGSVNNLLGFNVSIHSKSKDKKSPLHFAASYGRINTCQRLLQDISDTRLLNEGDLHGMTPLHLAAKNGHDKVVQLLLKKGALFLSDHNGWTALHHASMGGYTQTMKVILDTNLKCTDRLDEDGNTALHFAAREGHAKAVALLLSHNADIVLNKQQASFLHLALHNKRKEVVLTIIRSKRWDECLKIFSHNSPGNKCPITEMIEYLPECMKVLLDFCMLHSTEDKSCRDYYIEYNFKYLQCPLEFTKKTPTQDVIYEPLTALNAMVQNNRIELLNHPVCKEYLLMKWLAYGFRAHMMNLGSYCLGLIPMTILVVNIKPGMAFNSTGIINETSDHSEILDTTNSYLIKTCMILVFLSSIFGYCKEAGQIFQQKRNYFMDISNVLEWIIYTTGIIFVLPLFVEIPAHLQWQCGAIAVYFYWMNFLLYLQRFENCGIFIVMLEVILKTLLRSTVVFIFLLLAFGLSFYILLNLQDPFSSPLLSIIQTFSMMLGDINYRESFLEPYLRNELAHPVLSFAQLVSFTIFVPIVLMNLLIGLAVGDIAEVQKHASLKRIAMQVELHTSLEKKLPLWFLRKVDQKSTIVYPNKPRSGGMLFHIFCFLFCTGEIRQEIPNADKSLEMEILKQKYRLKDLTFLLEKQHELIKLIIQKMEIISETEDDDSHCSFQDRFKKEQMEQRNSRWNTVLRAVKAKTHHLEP

Row | Compound | inhibition at 1 µM (human TRPA1) | inhibition at 10 µM (human TRPA1) | IC50 (human TRPA1; class symbols) | inhibition at 10 µM (rat TRPA1) | inhibition at 1 µM (rat TRPA1) | IC50 (rat TRPA1) | IC50 (human TRPA1; numeric values)
1 | Cn1c(=O)c2c(CC(=O)Nc3nc(-c4cc(Cl)c(OCC(F)(F)F)c(Cl)c4)cs3)coc2n(C)c1=O [Example 47, N1-{4-[3,5-Dichloro-4-(2,2,2-trifluoroethoxy)phenyl]-1,3-thiazol-2-yl}2-(1,3-dimethyl-2,4-dioxo-1,2,3,4-tetrahydrofuro[2,3-d]pyrimidin-5-yl)acetamide] | 99.2% | 99.8% | < 50 nM | 100% | 86% | < 50 nM | –
2 | Cn1c(=O)c2c(CC(=O)Nc3nc(-c4ccc(OC(F)(F)F)cc4)cs3)coc2n(C)c1=O [Example 8, N1-[4-(4-Trifluorormethoxyphenyl)-1,3-thiazol-2-yl]-2-(1,3-dimethyl-2,4-dioxo-1,2,3,4-tetrahydrofuro[2,3-d]pyrimidin-5-yl)acetamide] | 93.2% | 98.8% | < 50 nM | 100% | 100% | < 50 nM | –
3 | Cn1c(=O)c2c(CC(=O)Nc3nc(-c4ccc(Cl)c(Cl)c4Cl)cs3)coc2n(C)c1=O [Example 34, N1-[4-(2,3,4-Trichlorophenyl)-1,3-thiazol-2-yl]-2-(1,3-dimethyl-2,4-dioxo-1,2,3,4-tetrahydrofuro[2,3-d]pyrimidin-5-yl)acetamide] | 97% | 99.7% | < 50 nM | 99.3% | 91% | 50 to 100 nM | –
4 | Cc1oc2c(c1CC(=O)Nc1nc(-c3cccc(Cl)c3Cl)cs1)c(=O)n(C)c(=O)n2C [Example 55, N1-[4-(2,3-Dichlorophenyl)-1,3-thiazol-2-yl]-2-(1,3,6-trimethyl-2,4-dioxo-1,2,3,4-tetrahydrofuro[2,3-d]pyrimidin-5-yl)acetamide] | 95.8% | 99% | – | 100% | 97.7% | – | –
5 | Cc1oc2c(c1CC(=O)Nc1nc(-c3cc(F)c(OCC(C)C)c(F)c3)cs1)c(=O)n(C)c(=O)n2C [Example 81, N1-[4-(3,5-Difluoro-4-isobutoxyphenyl)-1,3-thiazol-2-yl]-2-(1,3,6-trimethyl-2,4-dioxo-1,2,3,4-tetrahydrofuro[2,3-d]pyrimidin-5-yl)acetamide] | – | – | – | 99.2% | 100% | 50 to 100 nM | 4.63 nM
6 | Cn1c(=O)c2c(CC(=O)Nc3nc(-c4ccc(C(F)(F)F)cc4F)cs3)coc2n(C)c1=O [Example 22, N1-{4-[2-Fluoro-4-(trifluoromethyl)phenyl]-1,3-thiazol-2-yl}-2-(1,3-dimethyl-2,4-dioxo-1,2,3,4-tetrahydrofuro[2,3-d]pyrimidin-5-yl)acetamide] | 99.3% | 98.5% | < 50 nM | 100% | 100% | – | –
7 | Cn1c(=O)c2c(CC(=O)Nc3nc(-c4ccc(OC(F)F)c(Cl)c4)cs3)coc2n(C)c1=O [Example 24, N1-[4-(3-Chloro-4-difluoromethoxyphenyl)-1,3-thiazol-2-yl]-2-(1,3-dimethyl-2,4-dioxo-1,2,3,4-tetrahydrofuro[2,3-d]pyrimidin-5-yl)acetamide] | 97.4% | 99.8% | < 50 nM | 99.6% | 100% | > 100 nM | –
8 | Cc1oc2c(c1CC(=O)Nc1nc(-c3cc(Cl)c(OC(F)F)c(Cl)c3)cs1)c(=O)n(C)c(=O)n2C [Example 86, N1-{4-[3,5-Dichloro-4-(difluoromethoxy)phenyl]-1,3-thiazol-2-yl}-2-(1,3,6-trimethyl-2,4-dioxo-1,2,3,4-tetrahydrofuro[2,3-d]pyrimidin-5-yl)acetamide] | – | – | – | 95.4% | 99.1% | < 50 nM | 4.11 nM

Now from value to compound:

Row | inhibition at 1 µM (human TRPA1) | inhibition at 10 µM (human TRPA1) | IC50 (human TRPA1; class symbols) | inhibition at 10 µM (rat TRPA1) | inhibition at 1 µM (rat TRPA1) | IC50 (rat TRPA1) | IC50 (human TRPA1; numeric values) | Compound
9 | – | – | < 50 nM | – | – | < 50 nM | – | Cc1oc2c(c1CC(=O)Nc1nc(-c3ccc(F)c(C(F)(F)F)c3)cs1)c(=O)n(C)c(=O)n2C [Example 58, N1-{4-[4-Fluoro-3-(trifluoromethyl)phenyl]-1,3-thiazol-2-yl}-2-(1,3,6-trimethyl-2,4-dioxo-1,2,3,4-tetrahydrofuro[2,3-d]pyrimidin-5-yl)acetamide]
10 | – | – | < 50 nM | 100% | 100% | – | – | Cc1oc2c(c1CC(=O)Nc1nc(-c3ccc(OCC(F)(F)F)c(F)c3)cs1)c(=O)n(C)c(=O)n2C [Example 73, N1-{4-[3-Fluoro-4-(2,2,2-trifluoroethoxy)phenyl]-1,3-thiazol-2-yl}-2-(1,3,6-trimethyl-2,4-dioxo-1,2,3,4-tetrahydrofuro[2,3-d]pyrimidin-5-yl)acetamide]
11 | – | – | – | 100% | 98.3% | – | 1.77 nM | Cc1oc2c(c1CC(=O)Nc1nc(-c3cc(Cl)c(OCC(F)(F)F)c(Cl)c3)cs1)c(=O)n(C)c(=O)n2C [Example 88, N1-{4-[3,5-Dichloro-4-(2,2,2-trifluoroethoxy)phenyl]-1,3-thiazol-2-yl}-2-(1,3,6-trimethyl-2,4-dioxo-1,2,3,4-tetrahydrofuro[2,3-d]pyrimidin-5-yl)acetamide]
12 | 99.1% | 99.2% | – | 100% | 100% | – | – | Cc1oc2c(c1CC(=O)Nc1nc(-c3cccc(OC(F)(F)F)c3)cs1)c(=O)n(C)c(=O)n2C [Example 52, N1-{4-[3-(Trifluoromethoxy)phenyl]-1,3-thiazol-2-yl}-2-(1,3,6-trimethyl-2,4-dioxo-1,2,3,4-tetrahydrofuro[2,3-d]pyrimidin-5-yl)acetamide]
13 | – | – | – | – | – | < 50 nM | 4.16 nM | Cc1oc2c(c1CC(=O)Nc1nc(-c3cc(F)c(C(F)(F)F)c(F)c3)cs1)c(=O)n(C)c(=O)n2C [Example 84, N1-{4-[3,5-Difluoro-4-(trifluoromethyl)phenyl]-1,3-thiazol-2-yl}-2-(1,3,6-trimethyl-2,4-dioxo-1,2,3,4-tetrahydrofuro[2,3-d]pyrimidin-5-yl)acetamide]
14 | 97.6% | 99.3% | < 50 nM | 99.9% | 98.6% | – | – | Cn1c(=O)c2c(CC(=O)Nc3nc(-c4ccc(OCC(C)(C)C)c(F)c4)cs3)coc2n(C)c1=O [Example 26, N1-{4-[4-(2,2-Dimethylpropoxy)-3-fluorophenyl]-1,3-thiazol-2-yl}-2-(1,3-dimethyl-2,4-dioxo-1,2,3,4-tetrahydrofuro[2,3-d]pyrimidin-5-yl)acetamide]
15 | – | – | < 50 nM | – | – | < 50 nM | – | Cc1oc2c(c1CC(=O)Nc1nc(-c3ccc(Cl)c(OC(F)(F)F)c3)cs1)c(=O)n(C)c(=O)n2C [Example 69, N1-{4-[4-Chloro-3-(trifluoromethoxy)phenyl]-1,3-thiazol-2-yl}-2-(1,3,6-trimethyl-2,4-dioxo-1,2,3,4-tetrahydrofuro[2,3-d]pyrimidin-5-yl)acetamide]
16 | – | – | – | – | – | < 50 nM | 4.52 nM | Cc1oc2c(c1CC(=O)Nc1nc(-c3ccc(F)c(C(F)(F)F)c3F)cs1)c(=O)n(C)c(=O)n2C [Example 83, N1-{4-[2,4-Difluoro-3-(trifluoromethyl)phenyl]-1,3-thiazol-2-yl}-2-(1,3,6-trimethyl-2,4-dioxo-1,2,3,4-tetrahydrofuro[2,3-d]pyrimidin-5-yl)acetamide]
17 | 99.4% | 99.8% | – | 98.5% | 99.8% | – | – | Cc1oc2c(c1CC(=O)Nc1nc(-c3ccc(C(F)(F)F)c(Cl)c3)cs1)c(=O)n(C)c(=O)n2C [Example 66, N1-{4-[3-Chloro-4-(trifluoromethyl)phenyl]-1,3-thiazol-2-yl}-2-(1,3,6-trimethyl-2,4-dioxo-1,2,3,4-tetrahydrofuro[2,3-d]pyrimidin-5-yl)acetamide]
